Experimental data as given in ChEMBL document CHEMBL1201862, “PubChem BioAssay data set” (2004).
The source made the active and inactive calls.

What was measured:
[1] = target: T1, Orexin/Hypocretin receptor type 1 (Homo sapiens, UniProt O43613); test: (§1) Fluorescence-based cell-based high throughput dose response assay for antagonists of the orexin 1 receptor (OX1R; HCRTR1). [Related pubchem assays (depositor defined):AID434989, AID435008, AID463079, AID485270, AID492963, AID492964, AID492965, AID493232, AID504717, AID504718]; type: functional
T1 sequence (O43613 whole entry): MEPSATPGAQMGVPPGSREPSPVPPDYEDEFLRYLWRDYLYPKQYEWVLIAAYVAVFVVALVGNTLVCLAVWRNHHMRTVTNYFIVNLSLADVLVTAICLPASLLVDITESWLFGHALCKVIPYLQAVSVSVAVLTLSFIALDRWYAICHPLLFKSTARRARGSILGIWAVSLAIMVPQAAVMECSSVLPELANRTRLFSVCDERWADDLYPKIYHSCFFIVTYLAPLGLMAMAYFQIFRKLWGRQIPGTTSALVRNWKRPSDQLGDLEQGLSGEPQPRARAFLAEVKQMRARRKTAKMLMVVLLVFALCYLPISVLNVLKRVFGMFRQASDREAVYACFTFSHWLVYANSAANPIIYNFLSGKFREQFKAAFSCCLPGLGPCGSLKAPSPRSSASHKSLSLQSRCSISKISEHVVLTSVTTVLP

[2] = (§2) Counterscreen for antagonists of the orexin 1 receptor (OX1R; HCRTR1): Fluorescence-based cell-based high throughput dose response assay to identify antagonists of the parental CHO cell line. [Related pubchem assays (depositor defined):AID434989, AID435008, AID463079, AID485270, AID492963, AID492964, AID492965, AID493232, AID504699, AID504701]; type: functional
CHO-K1 = test: as §2, with “Homogeneous time resolved fluorescence (HTRF)-based” for “Fluorescence-based”, “cell-based” for “cell-based high throughput”, “CHO-K1” for “CHO”; type: functional; settings: Cricetulus griseus
[3] = target: T1, Orexin/Hypocretin receptor type 1; test: as §1, with “Homogeneous Time Resolved Fluorescence (HTRF)-based” for “Fluorescence-based”; type: functional
X-box-binding protein 1 = X-box-binding protein 1 (Homo sapiens, UniProt P17861); type: functional, Cricetulus griseus;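 further: confirmatory dose-response counter-screen serving a CHOP assay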
[4] = target: Arf-GAP with SH3 domain, ANK repeat and PH domain-containing protein 1 (Homo sapiens, UniProt Q9ULH1); type: functional;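 further: biochemical fluorescence polarization dose–response screen measuring inhibition of ASAP1; ASAP1 GAP domain stimulating GTP hydrolysis by truncated human ARF1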
[5] = target: ADP-ribosylation factor GTPase-activating protein 1 (Rattus norvegicus, UniProt Q62848); test: Fluorescence polarization-based biochemical high throughput dose response screening assay to identify inhibitors of ADP-ribosylation factor GTPase activating protein 1 (ARFGAP1).; type: functional
[6] = target: DNA damage-inducible transcript 3 protein (Mus musculus, UniProt P35639); type: functional, Cricetulus griseus
[7] = target: DNA dC->dU-editing enzyme APOBEC-3G (Homo sapiens, UniProt Q9HC16); type: functional;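 further: Dose-response counterscreen measuring inhibition of APOBEC3G DNA deaminase activity, run while confirming APOBEC3A inhibitors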
[8] = target: DNA dC->dU-editing enzyme APOBEC-3A (Homo sapiens, UniProt P31941); test: Dose Response confirmation of small molecule APOBEC3A DNA Deaminase Inhibitors via a fluorescence-based single-stranded DNA deaminase assay. [Related pubchem assays (depositor defined):AID493011, AID493024]; type: functional
Chain of DNA dC->dU-editing enzyme APOBEC-3A (P31941 whole entry): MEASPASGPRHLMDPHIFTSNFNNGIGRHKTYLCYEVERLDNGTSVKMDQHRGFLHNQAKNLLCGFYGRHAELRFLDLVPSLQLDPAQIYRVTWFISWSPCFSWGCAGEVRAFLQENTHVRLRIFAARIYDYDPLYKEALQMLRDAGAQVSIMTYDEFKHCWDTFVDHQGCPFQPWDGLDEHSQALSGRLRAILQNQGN

Chain of DNA dC->dU-editing enzyme APOBEC-3G (Q9HC16 whole entry): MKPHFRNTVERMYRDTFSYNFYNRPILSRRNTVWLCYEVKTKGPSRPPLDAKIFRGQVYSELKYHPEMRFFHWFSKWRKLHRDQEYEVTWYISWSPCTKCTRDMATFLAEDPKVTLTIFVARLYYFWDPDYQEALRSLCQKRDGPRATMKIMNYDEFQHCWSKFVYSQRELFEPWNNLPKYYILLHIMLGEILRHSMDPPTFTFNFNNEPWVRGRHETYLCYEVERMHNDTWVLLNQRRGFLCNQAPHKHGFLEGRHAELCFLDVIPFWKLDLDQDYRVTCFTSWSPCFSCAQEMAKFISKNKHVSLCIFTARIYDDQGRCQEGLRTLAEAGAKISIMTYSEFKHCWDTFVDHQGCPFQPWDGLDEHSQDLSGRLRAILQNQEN
Chain of Arf-GAP with SH3 domain, ANK repeat and PH domain-containing protein 1 (Q9ULH1 whole entry, the tested form may be a part): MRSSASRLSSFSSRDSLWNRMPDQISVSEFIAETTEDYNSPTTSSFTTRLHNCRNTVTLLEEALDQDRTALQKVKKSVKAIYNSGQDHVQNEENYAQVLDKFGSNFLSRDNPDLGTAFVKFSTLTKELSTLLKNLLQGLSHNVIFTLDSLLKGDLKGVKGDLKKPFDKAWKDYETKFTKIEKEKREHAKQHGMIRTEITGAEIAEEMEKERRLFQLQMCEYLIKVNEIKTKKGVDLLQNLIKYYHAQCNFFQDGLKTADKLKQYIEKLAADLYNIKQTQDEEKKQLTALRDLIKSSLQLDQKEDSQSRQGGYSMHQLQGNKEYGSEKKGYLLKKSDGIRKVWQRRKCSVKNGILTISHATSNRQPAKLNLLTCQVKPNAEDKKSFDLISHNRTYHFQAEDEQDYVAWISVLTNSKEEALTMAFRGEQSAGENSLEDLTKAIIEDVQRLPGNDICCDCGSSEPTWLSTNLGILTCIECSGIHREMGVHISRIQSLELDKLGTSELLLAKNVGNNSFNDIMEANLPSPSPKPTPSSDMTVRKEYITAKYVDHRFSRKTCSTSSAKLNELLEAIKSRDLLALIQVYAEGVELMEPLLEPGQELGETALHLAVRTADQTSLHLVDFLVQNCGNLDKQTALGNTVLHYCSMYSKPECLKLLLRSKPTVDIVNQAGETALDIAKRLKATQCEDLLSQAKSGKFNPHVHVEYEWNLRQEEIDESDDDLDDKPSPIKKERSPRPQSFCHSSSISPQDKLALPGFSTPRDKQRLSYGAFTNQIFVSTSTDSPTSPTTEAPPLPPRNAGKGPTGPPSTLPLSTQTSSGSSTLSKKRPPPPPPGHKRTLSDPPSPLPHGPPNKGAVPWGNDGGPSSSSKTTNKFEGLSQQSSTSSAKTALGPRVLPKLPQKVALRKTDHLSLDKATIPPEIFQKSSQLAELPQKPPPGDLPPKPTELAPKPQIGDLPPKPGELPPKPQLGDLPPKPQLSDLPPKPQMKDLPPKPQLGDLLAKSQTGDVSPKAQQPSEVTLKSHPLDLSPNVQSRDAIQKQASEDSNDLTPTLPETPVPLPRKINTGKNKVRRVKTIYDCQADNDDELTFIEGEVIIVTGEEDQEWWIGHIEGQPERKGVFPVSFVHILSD
Chain of ADP-ribosylation factor GTPase-activating protein 1 (Q62848 whole entry): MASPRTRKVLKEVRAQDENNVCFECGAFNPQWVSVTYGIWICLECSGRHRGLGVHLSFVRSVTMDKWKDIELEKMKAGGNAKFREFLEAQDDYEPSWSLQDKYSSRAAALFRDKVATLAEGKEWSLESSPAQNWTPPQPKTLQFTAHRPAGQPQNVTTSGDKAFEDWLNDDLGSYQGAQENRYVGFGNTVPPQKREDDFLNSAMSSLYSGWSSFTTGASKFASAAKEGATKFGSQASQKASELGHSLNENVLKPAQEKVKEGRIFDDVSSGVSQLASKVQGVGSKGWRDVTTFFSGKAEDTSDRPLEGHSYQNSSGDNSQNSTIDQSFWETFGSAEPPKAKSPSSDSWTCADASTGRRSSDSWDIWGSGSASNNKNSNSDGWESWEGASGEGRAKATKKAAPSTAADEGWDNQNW
Chain of X-box-binding protein 1 (P17861 whole entry, the tested form may be a part): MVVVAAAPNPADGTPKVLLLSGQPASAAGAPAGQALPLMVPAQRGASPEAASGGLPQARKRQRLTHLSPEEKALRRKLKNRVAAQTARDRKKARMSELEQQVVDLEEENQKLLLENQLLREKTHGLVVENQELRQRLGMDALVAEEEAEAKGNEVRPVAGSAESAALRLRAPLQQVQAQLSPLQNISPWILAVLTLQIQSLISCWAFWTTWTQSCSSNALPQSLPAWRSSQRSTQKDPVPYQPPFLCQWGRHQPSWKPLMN
Chain of DNA damage-inducible transcript 3 protein (P35639 whole entry): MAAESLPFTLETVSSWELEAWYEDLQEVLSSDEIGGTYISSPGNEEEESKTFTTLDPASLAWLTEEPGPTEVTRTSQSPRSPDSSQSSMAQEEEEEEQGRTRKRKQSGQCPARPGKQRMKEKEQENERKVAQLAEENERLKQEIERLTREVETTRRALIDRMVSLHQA

## Cc1ccc(N(CC(=O)NCCc2ccc(Cl)cc2)S(=O)(=O)c2c(C)noc2C)cc1
[1]
  IC50: 2.87 µM (active)
[2]
  IC50: > 49.8 µM (inactive)
CHO-K1
  IC50: > 66.2 µM (inactive)
[3]
  IC50: 0.585 µM (active)

## Cn1c(=O)n(CCOc2ccc(Cl)cc2Cl)c2ccccc21
X-box-binding protein 1
  Absolute IC50 (XBP1): 10 µM
[4]
  IC50: 18.4 µM (inactive)
[5]
  IC50: 18.4 µM (inactive)
[6]
  Absolute IC50 (CHOP): 10 µM

## O=[N+]([O-])c1ccccc1/C=N/NC1=NCCN1
[7]
  IC50: 6.95 µM (active)
[8]
  IC50: 5.96 µM (active)
